This series relates to Hic-5. Description: Condition 8: Hic-5 expression by RT-PCR, human HSCs, ASO 5 µM without transfection reagent, 72 hours. In kind it is cell-based. The note with it: ratio, mean±SEM.

{TEG-Chol} = cholesterol attached via TEG linker; l = locked nucleic acid (LNA); {Toco} = tocopherol conjugate; d = 2'-deoxy (DNA)

In the case of “H26_cho: modified at the 5' end of H26 with TEG-cholesterol; GCTCGTGGAAACCCTC; LNA 1-3,14-16; SEQ ID NO 458 (sugars from the 5' end l3 d10 l3, 5' {TEG-Chol}, backbone and methylation of C not given here)”, the “Expression Inhibition Rate (4) Condition 8 (n=2)” value turned out to be 0.161±0.110.

Turning to “H26_toco: modified at the 5' end of H26 with tocopherol; GCTCGTGGAAACCCTC; LNA 1-3,14-16; SEQ ID NO 459 (sugars from the 5' end l3 d10 l3, 5' {Toco}, backbone and methylation of C not given here)”, the “Expression Inhibition Rate (4) Condition 8 (n=2)” value stood at 0.738±0.010.

The record behind these values is EP4733400A1, “ANTISENSE OLIGONUCLEOTIDE TARGETING HIC-5” (SHOWA Medical University, priority 2023, dated 2025).
